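GI50 marks 50% less growth. Definition used: TGI = concentration required for complete inhibition of growth.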
What was measured:
Assay in all cases: NCI anticancer screen, dose series, 384-well format
[1] = tested on: A549 NSCLC
[2] = tested on: DU-145 prostate
[3] = tested on: TK-10 renal
[4] = tested on: SF-295 CNS
[5] = tested on: SNB-75 CNS
[6] = tested on: MDA-MB-435 melanoma
[7] = tested on: SF-539 CNS
[8] = tested on: CCRF-CEM leukemia
[9] = tested on: NCI-H522 lung
[10] = tested on: NCI-H322M lung
[11] = tested on: NCI/ADR-RES ovarian
[12] = tested on: SK-MEL-28 melanoma
[13] = tested on: NCI-H460 NSCLC
[14] = tested on: SF-268 CNS
[15] = tested on: A498 renal
[16] = tested on: NCI-H23 lung
[17] = tested on: EKVX NSCLC
[18] = tested on: UO-31 renal
[19] = tested on: LOX IMVI melanoma
[20] = tested on: OVCAR-5 ovarian
[21] = tested on: SR leukemia
[22] = tested on: MOLT-4 leukemia
[23] = tested on: HS 578T breast
[24] = tested on: HOP-62 NSCLC
[25] = tested on: HCT-116 colon
[26] = tested on: CAKI-1 renal
[27] = tested on: HT29 colon
[28] = tested on: KM12 colon
[29] = tested on: RXF 393 renal
[30] = tested on: SK-MEL-5 melanoma
[31] = tested on: OVCAR-4 ovarian
[32] = tested on: UACC-62 melanoma
[33] = tested on: K-562 leukemia
[34] = tested on: PC-3 prostate
[35] = tested on: MALME-3M melanoma
[36] = tested on: SN12C renal
[37] = tested on: HOP-92 NSCLC
[38] = tested on: MDA-MB-468 breast
[39] = tested on: MCF7 breast
[40] = tested on: ACHN renal
[41] = tested on: RPMI-8226 leukemia
[42] = tested on: OVCAR-3 ovarian
[43] = tested on: IGROV1 ovarian
[44] = tested on: HL-60(TB) leukemia
[45] = tested on: 786-0 renal
[46] = tested on: U251 glioblastoma
[47] = tested on: SK-OV-3 ovarian
[48] = tested on: NCI-H226 lung
[49] = tested on: SNB-19 CNS
[50] = tested on: BT-549 breast
[51] = tested on: HCT-15 colon
[52] = tested on: COLO 205 colon
[53] = tested on: MDA-MB-231 breast
[54] = tested on: SK-MEL-2 melanoma
[55] = tested on: HCC-2998 colon

## O=C1NC(=O)[C@@H](c2cn3c4c(cccc24)CCC3)[C@@H]1c1c[nH]c2ccccc12
[1]
  GI50: 413 nM
  TGI: 14100 nM
[2]
  GI50: 451 nM
  TGI: 2990 nM
[3]
  GI50: 420 nM
  TGI: 15700 nM
[4]
  GI50: 246 nM
  TGI: 1230 nM
[5]
  GI50: 246 nM
  TGI: 10100 nM
[6]
  GI50: 24.9 nM
  TGI: 141 nM
[7]
  GI50: 244 nM
  TGI: 1070 nM
[8]
  GI50: 119 nM
  TGI: 246 nM
[9]
  GI50: 13.2 nM
  TGI: 93.7 nM
[10]
  GI50: 558 nM
  TGI: 13800 nM
[11]
  GI50: 203 nM
  TGI: 787 nM
[12]
  GI50: 311 nM
  TGI: 16600 nM
[13]
  GI50: 155 nM
  TGI: 630 nM
[14]
  GI50: 281 nM
  TGI: 2700 nM
[15]
  GI50: 307 nM
  TGI: 8830 nM
[16]
  GI50: 269 nM
  TGI: 6960 nM
[17]
  GI50: 340 nM
  TGI: 13900 nM
[18]
  GI50: 365 nM
  TGI: 16700 nM
[19]
  GI50: 453 nM
  TGI: 2100 nM
[20]
  GI50: 1620 nM
  TGI: 17300 nM
[21]
  TGI: 14.9 nM
[22]
  GI50: 52 nM
  TGI: 199 nM
[23]
  GI50: 123 nM
  TGI: 295 nM
[24]
  GI50: 252 nM
  TGI: 11800 nM
[25]
  GI50: 285 nM
  TGI: 3630 nM
[26]
  GI50: 71.2 nM
  TGI: 12000 nM
[27]
  GI50: 180 nM
  TGI: 494 nM
[28]
  GI50: 28 nM
  TGI: 1990 nM
[29]
  GI50: 26.8 nM
  TGI: 380 nM
[30]
  GI50: 115 nM
  TGI: 595 nM
[31]
  GI50: 2160 nM
  TGI: 20700 nM
[32]
  GI50: 96.9 nM
  TGI: 525 nM
[33]
  GI50: 21.5 nM
  TGI: 373 nM
[34]
  GI50: 145 nM
  TGI: 8340 nM
[35]
  GI50: 260 nM
  TGI: 11500 nM
[36]
  GI50: 401 nM
  TGI: 12700 nM
[37]
  GI50: 410 nM
  TGI: 10700 nM
[38]
  GI50: 53.3 nM
  TGI: 204 nM
[39]
  GI50: 141 nM
  TGI: 11600 nM
[40]
  GI50: 409 nM
  TGI: 14500 nM
[41]
  GI50: 154 nM
  TGI: 308 nM
[42]
  GI50: 21.9 nM
  TGI: 149 nM
[43]
  GI50: 403 nM
  TGI: 12400 nM
[44]
  GI50: 124 nM
  TGI: 252 nM
[45]
  GI50: 332 nM
  TGI: 12400 nM
[46]
  GI50: 280 nM
  TGI: 1790 nM
[47]
  GI50: 184 nM
  TGI: 3710 nM
[48]
  GI50: 400 nM
  TGI: 7390 nM
[49]
  GI50: 347 nM
  TGI: 12000 nM
[50]
  GI50: 154 nM
  TGI: 718 nM
[51]
  GI50: 40.6 nM
  TGI: 4940 nM
[52]
  GI50: 281 nM
  TGI: 7770 nM
[53]
  GI50: 398 nM
  TGI: 15400 nM
[54]
  GI50: 256 nM
  TGI: 497 nM
[55]
  TGI: 1260 nM

— PubChem BioAssay (NCI)
